Measured values as given in patent US8987171B2, “Selective herbicides with activator adjuvants” (W. Neudorff GmbH KG, priority 2010, dated 2015).
Where two headings read alike, the source gives them in different places.

Columns and labels:
[1] = system: perennial ryegrass; assay: Greenhouse black medic and turf test, iron chelates with Sylgard 309 (Example 2): grass damage; format: in vivo; conditions: sprayed twice at 200 ml/m^2, 7 days after first spraying, visual rating 0-100%
Description: (§1) The following non-limiting examples serve to further describe the invention. Unless otherwise specified, all of the iron solutions were made using the same molar concentration of iron ion as chelating agent. Samples were prepared by diluting a metal chelate, such as iron GLDA (Dissolvine GL-Fe-5), iron EDDS (Enviomet C320), or iron HEDTA (Neu 1173H), to the desired level of iron as specified using simple stirring. Neu 1173H contains the stabilizer sodium citrate at 1.5% prior to dilution. Dilutions of Neu1173H to the level of 0.25% Fe, incorporates 0.08% sodium citrate into the spray solutions. Adjuvants (Sylgard® 309, Biosoft®D-40, Tween® 20), were then diluted and added to the diluted metal chelate. Samples were usually prepared within 48 hours of spraying. All of the outside tests were done on areas of mixed grass and white clover that were at least 2 months old. For the greenhouse tests, white clover and black medic were grown in a commercial greenhouse mix using supplemental lighting and heating. Each plant was grown in a 2¼ inch pot to a minimum diameter of 15-20 cm. Perennial ryegrass was grown in 2¼ inch pots in the same greenhouse conditions as above and they are at least 4 weeks old at the time of application. […]
(§2) All plant damage was visually assessed using a percentage rating scale from 0 (no injury) to 100% (death). […]

[2] = system: black medic; assay: Greenhouse black medic and turf test, iron chelates with Sylgard 309 (Example 2): black medic damage; format: in vivo; conditions: sprayed twice at 200 ml/m^2, 7 days after first spraying, visual rating 0-100%
Description: as §1, §2

[3] = system: perennial ryegrass; assay: Greenhouse white clover and turf test, iron chelates with Sylgard 309 (Example 6): grass damage; format: in vivo; conditions: sprayed twice at 200 ml/m^2, 14 days after second spraying, visual rating 0-100%
Description: as §1, §2

[4] = system: white clover; assay: Greenhouse white clover and turf test, iron chelates with Sylgard 309 (Example 6): white clover damage; format: in vivo, white clover (Trifolium repens); conditions: sprayed twice at 200 ml/m^2, 14 days after second spraying, visual rating 0-100%
Description: as §1, §2

[5] = system: park lawn; assay: Field English daisy and turf test, iron chelates with Sylgard 309 and Bio-Soft D-40 (Example 9): grass damage; format: in vivo; conditions: sprayed twice at 100 ml/m^2, 7 days after first spraying, visual rating 0-100%
Description: as §1, §2

[6] = system: English daisy; assay: Field English daisy and turf test, iron chelates with Sylgard 309 and Bio-Soft D-40 (Example 9): English daisy damage; format: in vivo, English daisy (Bellis perennis); conditions: sprayed twice at 100 ml/m^2, 7 days after first spraying, visual rating 0-100%
Description: as §1, §2

[7] = system: perennial ryegrass; assay: Greenhouse white clover and turf test, iron chelates with Sylgard 309 (Example 1): grass damage; format: in vivo; conditions: sprayed twice at 200 ml/m^2, 7 days after second spraying, visual rating 0 (no injury) to 100% (death)
Description: as §1, §2

[8] = system: white clover; assay: Greenhouse white clover and turf test, iron chelates with Sylgard 309 (Example 1): white clover damage; format: in vivo, white clover (Trifolium repens); conditions: sprayed twice at 200 ml/m^2, 7 days after second spraying, visual rating 0-100%
Description: as §1, §2

[9] = system: perennial ryegrass; format: in vivo; conditions: greenhouse, sprayed twice at 200 ml/m^2, one day after first spraying, visual rating 0-100%
Description: as §1, §2

[10] = system: white clover; assay: Greenhouse white clover and turf test, iron chelates with Bio-Soft D-40 (Example 3): white clover damage; format: in vivo, white clover (Trifolium repens); conditions: sprayed twice at 200 ml/m^2, one day after first spraying, visual rating 0-100%
Description: as §1, §2

[11] = system: park lawn; assay: Field white clover and turf test, iron chelates with Bio-Soft D-40 (Example 4): grass damage; format: in vivo; conditions: sprayed twice at 200 ml/m^2, 14 days after second spraying, visual rating 0-100%
Description: as §1, §2

[12] = system: white clover; assay: Field white clover and turf test, iron chelates with Bio-Soft D-40 (Example 4): white clover damage; format: in vivo, white clover (Trifolium repens); conditions: sprayed twice at 200 ml/m^2, 14 days after second spraying, visual rating 0-100%
Description: as §1, §2

[13] = system: perennial ryegrass; assay: Greenhouse white clover and turf test, iron chelates with Tween 20 (Example 5): grass damage; format: in vivo; conditions: sprayed twice at 200 ml/m^2, one day after first spraying, visual rating 0-100%
Description: as §1, §2

[14] = system: white clover; assay: Greenhouse white clover and turf test, iron chelates with Tween 20 (Example 5): white clover damage; format: in vivo, white clover (Trifolium repens); conditions: sprayed twice at 200 ml/m^2, one day after first spraying, visual rating 0-100%
Description: as §1, §2

[15] = system: park lawn; assay: Field English daisy and turf test, iron chelates with Sylgard 309 (Example 8): grass damage; format: in vivo; conditions: sprayed twice at 200 ml/m^2, 5 days after first spraying, visual rating 0-100%
Description: as §1, §2

[16] = system: English daisy; assay: Field English daisy and turf test, iron chelates with Sylgard 309 (Example 8): English daisy damage; format: in vivo, English daisy (Bellis perennis); conditions: sprayed twice at 200 ml/m^2, 5 days after first spraying, visual rating 0-100%
Description: as §1, §2

[17] = system: perennial ryegrass; assay: Greenhouse dandelion and turf test, iron chelates with Sylgard 309 (Example 7): grass damage; format: in vivo; conditions: sprayed twice at 200 ml/m^2, 7 days after first spraying, visual rating 0-100%
Description: as §1, §2

[18] = system: dandelion; assay: Greenhouse dandelion and turf test, iron chelates with Sylgard 309 (Example 7): dandelion damage; format: in vivo, dandelion (Taraxacum officinale); conditions: sprayed twice at 200 ml/m^2, 7 days after first spraying, visual rating 0-100%
Description: as §1, §2

Substance | Grass Damage (%) [1] | Black Medic Damage (%) [2] | Grass Damage (%) [3] | White Clover Damage (%) [4] | Grass Damage (%) [5] | English daisy Damage (%) [6] | Grass Damage (%) [7] | White Clover Damage (%) [8] | Grass Damage (%) [9] | White Clover Damage (%) [10] | Grass Damage (%) [11] | White Clover Damage (%) [12] | Grass Damage (%) [13] | White Clover Damage (%) [14] | Grass Damage (%) [15] | English daisy Damage (%) [16] | Grass Damage (%) [17] | Dandelion Damage (%) [18]
iron hydroxyethylenediaminetriacetic acid [FeHEDTA 1.5% a.i (0.25% Fe)] | 3% | 54% | 2% | 46% | 2% | 81% | – | – | – | – | – | – | – | – | – | – | – | –
iron ethylenediaminedisuccinate [FeEDDS 2.49% a.i. (0.4% Fe)] | 2% | 28% | – | – | – | – | 3% | 27% | 1% | 15% | 1% | 38% | 0% | 18% | 4% | 39% | – | –
iron glutamicaciddiacetic acid [FeGLDA 2.28% a.i. (0.4% Fe)] | – | – | – | – | – | – | 8% | 7% | 0% | 8% | – | – | – | – | – | – | 6% | 38%
